Assay results as given in ChEMBL document CHEMBL1154297, “Inhibitor profiling of the Pseudomonas aeruginosa virulence factor LasB using N-alpha mercaptoamide template-based inhibitors” (Bioorg Med Chem Lett, 2009).
pKi: −log10 of the molar value.

The compounds below were run against Elastase (Pseudomonas aeruginosa (strain ATCC 15692 / PAO1 / 1C / PRS 101 / LMG12228), UniProt P14756) (assay: Inhibition of Pseudomonas aeruginosa LasB by fluorimetric assay in buffer of pH 7.2). Details: not given; call rule not given here.
Chain of Elastase (P14756 whole entry): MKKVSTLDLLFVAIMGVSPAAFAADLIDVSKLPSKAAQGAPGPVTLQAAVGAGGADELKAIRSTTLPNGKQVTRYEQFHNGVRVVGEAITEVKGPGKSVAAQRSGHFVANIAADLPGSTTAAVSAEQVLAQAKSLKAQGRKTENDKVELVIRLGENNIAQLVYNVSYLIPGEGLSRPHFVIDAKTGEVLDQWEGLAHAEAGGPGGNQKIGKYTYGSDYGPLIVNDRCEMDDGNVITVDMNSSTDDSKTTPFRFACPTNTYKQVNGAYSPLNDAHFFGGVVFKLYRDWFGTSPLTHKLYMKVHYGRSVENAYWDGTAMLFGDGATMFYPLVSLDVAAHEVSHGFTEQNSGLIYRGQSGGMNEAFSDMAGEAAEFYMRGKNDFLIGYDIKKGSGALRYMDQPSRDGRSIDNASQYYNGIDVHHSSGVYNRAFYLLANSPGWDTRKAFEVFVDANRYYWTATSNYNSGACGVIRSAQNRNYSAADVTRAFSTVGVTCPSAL

Row | Ki | Structure (SMILES)
1 | Not Active | NC(=O)C[C@H](NC(=O)CS)C(=O)N[C@@H](CC(=O)O)C(N)=O
2 | Not Active | NC(=O)[C@H](CC(=O)O)NC(=O)[C@H](CC(=O)O)NC(=O)CS
3 | Not Active | CC(C)[C@H](NC(=O)[C@H](CC(=O)O)NC(=O)CS)C(N)=O
4 | Not Active | CC(C)C[C@H](NC(=O)[C@H](CS)NC(=O)CS)C(N)=O
5 | Not Active | CC(C)C[C@H](NC(=O)[C@H](CCCNC(=N)N)NC(=O)CS)C(N)=O
6 | Not Active | CC[C@@H](C)[C@H](NC(=O)CS)C(=O)N[C@@H](CCCNC(=N)N)C(N)=O
7 | Not Active | N=C(N)NCCC[C@H](NC(=O)[C@H](CCCNC(=N)N)NC(=O)CS)C(N)=O
8 | Not Active | N=C(N)NCCC[C@H](NC(=O)[C@H](CCC(=O)O)NC(=O)CS)C(N)=O
9 | Not Active | NC(=O)[C@H](CC(=O)O)NC(=O)[C@@H]1CCCN1C(=O)CS
10 | Not Active | NC(=O)[C@H](CC(=O)O)NC(=O)[C@H](CS)NC(=O)CS
11 | Not Active | CC(C)[C@H](NC(=O)CS)C(=O)N[C@@H](Cc1c[nH]c2ccccc12)C(N)=O
12 | Not Active | NC(=O)[C@H](Cc1ccccc1)NC(=O)[C@H](CC(=O)O)NC(=O)CS
13 | Not Active | NC(=O)[C@H](CC(=O)O)NC(=O)[C@H](Cc1ccccc1)NC(=O)CS
14 | Not Active | CC(C)[C@H](NC(=O)[C@H](CCCNC(=N)N)NC(=O)CS)C(N)=O
15 | Not Active | CC(C)[C@H](NC(=O)CS)C(=O)N[C@@H](CC(=O)O)C(N)=O
16 | Not Active | NC(=O)[C@H](CC(=O)O)NC(=O)[C@H](CO)NC(=O)CS
17 | Not Active | N=C(N)NCCC[C@H](NC(=O)[C@H](Cc1ccccc1)NC(=O)CS)C(N)=O

Same assay, conditions: read-out: Ki

Row | Structure (SMILES) | pKi
18 | NC(=O)[C@H](Cc1ccccc1)NC(=O)[C@H](Cc1ccccc1)NC(=O)CS | 3.84
19 | CC(C)[C@H](NC(=O)CS)C(=O)N[C@@H](Cc1ccccc1)C(N)=O | 4.14
20 | NCCCC[C@H](NC(=O)CS)C(=O)N[C@@H](Cc1ccccc1)C(N)=O | 3.90
21 | NC(=O)[C@H](Cc1ccccc1)NC(=O)[C@H](CS)NC(=O)CS | 3.88
22 | NCCCC[C@H](NC(=O)[C@H](CCC(N)=O)NC(=O)CS)C(N)=O | 3.42
23 | CC(C)C[C@H](NC(=O)CNC(=O)CS)C(N)=O | 3.86
24 | CC(C)[C@H](NC(=O)[C@@H]1CCCN1C(=O)CS)C(N)=O | 3.80
25 | CC[C@@H](C)[C@H](NC(=O)CS)C(=O)N[C@@H](CC(C)C)C(N)=O | 5.89
26 | CC(C)[C@H](NC(=O)[C@H](CO)NC(=O)CS)C(N)=O | 3.64
27 | N=C(N)NCCC[C@H](NC(=O)[C@H](CO)NC(=O)CS)C(N)=O | 3.35
28 | CSCC[C@H](NC(=O)CS)C(=O)N[C@@H](CC(=O)O)C(N)=O | 5.15
29 | NCCCC[C@H](NC(=O)[C@H](CCC(=O)O)NC(=O)CS)C(N)=O | 3.26
30 | NC(=O)[C@H](Cc1c[nH]c2ccccc12)NC(=O)[C@@H]1CCCN1C(=O)CS | 3.25
31 | N=C(N)NCCC[C@H](NC(=O)[C@H](CC(N)=O)NC(=O)CS)C(N)=O | 3.55
32 | CC(C)[C@H](NC(=O)[C@H](C)NC(=O)CS)C(N)=O | 4.29
33 | NCCCC[C@H](NC(=O)[C@H](Cc1ccc(O)cc1)NC(=O)CS)C(N)=O | 5.07
34 | C[C@H](NC(=O)CS)C(=O)N[C@@H](CCCCN)C(N)=O | 3.82
35 | CC(C)[C@H](NC(=O)[C@@H](NC(=O)CS)C(C)C)C(N)=O | 5.00
36 | CC(C)C[C@H](NC(=O)[C@H](CCCCN)NC(=O)CS)C(N)=O | 3.91
37 | NC(=O)[C@H](Cc1ccccc1)NC(=O)[C@H](Cc1c[nH]c2ccccc12)NC(=O)CS | 5.96
38 | CC(C)C[C@H](NC(=O)[C@H](C)NC(=O)CS)C(N)=O | 4.68
39 | C[C@@H](O)[C@H](NC(=O)CS)C(=O)N[C@@H](Cc1ccccc1)C(N)=O | 3.65
40 | CC(C)[C@H](NC(=O)[C@H](CCCCN)NC(=O)CS)C(N)=O | 3.26
41 | NC(=O)[C@H](Cc1c[nH]c2ccccc12)NC(=O)[C@H](Cc1c[nH]c2ccccc12)NC(=O)CS | 4.31
42 | C[C@H](NC(=O)CS)C(=O)N[C@@H](CC(=O)O)C(N)=O | 3.50

Row | Structure (SMILES) | pKi
43 | CC(C)[C@H](NC(=O)[C@H](CC(N)=O)NC(=O)CS)C(N)=O | 3.74
44 | CSCC[C@H](NC(=O)CS)C(=O)N[C@@H](Cc1ccccc1)C(N)=O | 3.06
45 | NC(=O)[C@H](Cc1ccccc1)NC(=O)[C@H](CO)NC(=O)CS | 4.12
46 | NC(=O)[C@H](Cc1ccccc1)NC(=O)[C@H](CCC(=O)O)NC(=O)CS | 3.84
47 | CSCC[C@H](NC(=O)CS)C(=O)N[C@@H](Cc1c[nH]c2ccccc12)C(N)=O | 3.69
48 | N=C(N)NCCC[C@H](NC(=O)CS)C(=O)N[C@@H](CCCCN)C(N)=O | 3.87
49 | NC(=O)[C@H](Cc1ccccc1)NC(=O)[C@H](Cc1ccc(O)cc1)NC(=O)CS | 5.19
50 | N=C(N)NCCC[C@H](NC(=O)[C@H](CS)NC(=O)CS)C(N)=O | 3.19
51 | C[C@H](NC(=O)CS)C(=O)N[C@@H](Cc1c[nH]c2ccccc12)C(N)=O | 3.40
52 | NC(=O)[C@H](CC(=O)O)NC(=O)[C@H](Cc1c[nH]c2ccccc12)NC(=O)CS | 4.42
53 | CC(C)C[C@H](NC(=O)CS)C(=O)N[C@@H](CCCCN)C(N)=O | 4.85
54 | C[C@@H](O)[C@H](NC(=O)CS)C(=O)N[C@@H](Cc1c[nH]c2ccccc12)C(N)=O | 4.19
55 | CC[C@@H](C)[C@H](NC(=O)CS)C(=O)N[C@@H](CCCCN)C(N)=O | 3.72
56 | NC(=O)C[C@H](NC(=O)CS)C(=O)N[C@@H](Cc1c[nH]c2ccccc12)C(N)=O | 4.15
57 | NC(=O)[C@H](CC(=O)O)NC(=O)[C@H](Cc1ccc(O)cc1)NC(=O)CS | 5.26
58 | NC(=O)[C@H](Cc1c[nH]c2ccccc12)NC(=O)[C@H](CC(=O)O)NC(=O)CS | 3.68
59 | NC(=O)[C@H](Cc1ccccc1)NC(=O)CNC(=O)CS | 4.29
60 | CC(C)C[C@H](NC(=O)[C@H](Cc1ccc(O)cc1)NC(=O)CS)C(N)=O | 4.48
61 | NC(=O)[C@H](CCCN=C(N)N)NC(=O)CNC(=O)CS | 3.19
62 | C[C@H](NC(=O)CS)C(=O)N[C@@H](CCCNC(=N)N)C(N)=O | 3.94
63 | CC(C)C[C@H](NC(=O)CS)C(=O)N[C@@H](CC(=O)O)C(N)=O | 3.23
64 | CC(C)C[C@H](NC(=O)[C@H](Cc1c[nH]cn1)NC(=O)CS)C(N)=O | 3.51
65 | NC(=O)[C@H](Cc1c[nH]c2ccccc12)NC(=O)[C@H](Cc1cnc[nH]1)NC(=O)CS | 4.74
66 | CC(C)C[C@H](NC(=O)[C@@H]1CCCN1C(=O)CS)C(N)=O | 3.61
67 | CSCC[C@H](NC(=O)CS)C(=O)N[C@H](C(N)=O)C(C)C | 4.01
